Source: patent US5851556A, “Use of a salt of an alkaline-earth metal as TNF-A or substance P inhibitor in a topical composition and composition obtained” (Societe L'Oreal S.A., priority 1995, dated 1998)

What was measured:
substance P = assay: release of substance P caused by antidromic stimulation of the sciatic nerve, visualized with Evans blue; assay type: in vivo; conditions: for % inhibition relative to the control / μg/ml of Evans blue: 1 μmol; for μg/ml of Evans blue: control vehicle 8.19 ± 0.83
Description: The test consisted in determining the activity of the various compounds on the release of substance P, caused by antidromic stimulation of the sciatic nerve. This release is visualized by staining with a dye (Evans blue). The greater the quantity of substance P released, the more intense the colour. In other words, the greater the inhibitory effect produced on this release by the substance P antagonist, the less intense the colour.

TNF-alpha = TNF-alpha secretion by human monocytes (U937 line) stimulated by phorbol ester (PMA); assay type: cell-based; conditions: U937, PMA 10 nM, 48 hours; for % inhibition of TNF-alpha secretion induced by PMA: mean of 3 measurements
Method: This test is performed on human monocytes (U937 line) stimulated by a phorbol ester (PMA) according to the method described by Schindler et al (Correlations and interactions in the production of interleukin-6 (IL-6), IL-1, and Tumor Necrosis Factor (TNF) in human blood mononuclear cells: IL-6 suppresses IL-1 and TNF. Blood 75: 40-47 (1990)).
The phorbol ester (PMA) naturally stimulates the synthesis and/or the secretion of TNF-alpha by human monocytes in culture.
The activity of the molecules is evaluated according to their ability to reduce or even eliminate this TNF-alpha secretion.
The cells (monocytes) are incubated in the presence of PMA at the concentration of 10 nM for 48 hours at 37° C. The quantities of TNF-alpha secreted are quantified by immuno-enzymatic assay ([…]) with the aid of commercially available kits.
Each molecule is tested at 3 different concentrations (10^-5, 10^-4 and 10^-3 M) and during each experiment, a reference molecule (dexamethasone) is studied at 7 concentrations as internal standard.
The results are expressed as percentage inhibition relative to the positive control (without test molecule) after subtracting the background noise. A recapitulative Table 3 groups together the mean inhibitory effects obtained with the compounds. (The results expressed in % inhibition; they are the mean of 3 measurements).

O=[N+]([O-])[O-].O=[N+]([O-])[O-].[Ca+2] [Ca(NO3)2, calcium nitrate]
inhibitory activity on the release of substance P (substance P; Table 1, salts at 1 μmol): does not have any activity at all
inhibitory activity on the release of substance P (substance P; Table 2, strontium salts 1 μmol, calcium salt 10 μmol): has no activity at all

[Ca+2].[Cl-].[Cl-] [CaCl2,7H2 O, calcium chloride]
% inhibition of TNF-alpha secretion induced by PMA (TNF-alpha; 10^-3 M): 67%
% inhibition of TNF-alpha secretion induced by PMA (TNF-alpha; 10^-4 M): 22%
% inhibition of TNF-alpha secretion induced by PMA (TNF-alpha; 10^-5 M): 19%

[Cl-].[Cl-].[Mg+2] [MgCl2, magnesium chloride]
% inhibition of TNF-alpha secretion induced by PMA (TNF-alpha; 10^-3 M): 70%
% inhibition of TNF-alpha secretion induced by PMA (TNF-alpha; 10^-4 M): 12%

O=[N+]([O-])[O-].O=[N+]([O-])[O-].[Sr+2] [Sr(NO3)2, strontium nitrate]
% inhibition relative to the control (substance P; Table 1): 41%
μg/ml of Evans blue (substance P; Table 1): 4.84 ± 0.6 µg/mL
% inhibition relative to the control (substance P; Table 2): 71%
% inhibition of TNF-alpha secretion induced by PMA (TNF-alpha; 10^-3 M): 75%
% inhibition of TNF-alpha secretion induced by PMA (TNF-alpha; 10^-4 M): 28%

[Cl-].[Cl-].[Sr+2] [SrCl2 7H2 O, strontium chloride]
% inhibition of TNF-alpha secretion induced by PMA (TNF-alpha; 10^-3 M): 54%
% inhibition of TNF-alpha secretion induced by PMA (TNF-alpha; 10^-5 M): 14%

[Cl-].[Cl-].[Sr+2] [SrCl2, strontium chloride]
% inhibition relative to the control (substance P; Table 1): 37%
μg/ml of Evans blue (substance P; Table 1): 5.13 ± 0.9 µg/mL
% inhibition relative to the control (substance P; Table 2): 57%

C[C@@H]1C[C@H]2[C@@H]3CCC4=CC(=O)C=C[C@]4(C)[C@@]3(F)[C@@H](O)C[C@]2(C)[C@@]1(O)C(=O)CO [dexamethasone, reference compound]
IC50 (TNF-alpha; Homo sapiens, U-937, read-out: IC50 (50% reduction in the secretion, caused by PMA), reference molecule, 7 concentrations): 4 nM
